Results taken from US10016515B2, “DMA, a bis-benzimidazole, confers radioprotection to the intestine via Akt/NFκB dual pathway activation” (Jawaharlal Nehru University, priority 2016, dated 2018).

Tests used:
HEK293 cells = test: Proliferation kinetics in presence of inhibitors; type: cell-based, human
Protocol: HEK293 cells post 50 μM LY294002 (PI3K/Akt inhibitor) and 10 μM PS1145 (NFκB inhibitor) treatment were treated with 50 μM DMA and 5 Gy radiation. Same experiment was done with control (no inhibitor), only LY294002 and only PS1145 treated HEK cells. Percentage (%) radioprotection of cells at 24, 48 and 72 h was calculated by following formula— % growth of Radiation treated cells=(CNRadiation/CNControl)×100. % growth of DMA+Radiation treated cells=(CNDMA+Radiaion/CNControl)×100. % Radioprotection=% growth of DMA+Radiation treated cells−% growth of Radiation treated cells where CN is the cell number.

[1] = tested on: NFκB Δp65− A549 and scramble A549 cells; test: Clonogenicity assay of NFκB p65 knockdown A549 cells; type: cell-based, human
Protocol: 0.8-1×10^6 A549 cells were seeded with media containing 8 μg/ml polybrene. Cells were infected with 0.5 ml lentivirus in fresh media containing polybrene and were incubated for next 24 h. Desired cells were selected against puromycin. NFκB p65 protein knockdown was checked by western blot after 3 days of selection media.
Exponentially growing scrambled and NFκB p65 knockdown A549 cells were treated with 50 μM DMA for 2 h and irradiated with 0, 2, 4, 6 and 8 Gy of radiation dose for clonogenic survival assay. % Radioprotection was calculated by following formula % of Protection in radiation treated cells=(SF(Δp65−)+DMA/SF(Δp65−))×100 where SF is survival fraction in respective conditions.

nude mice = test: Nude mice survival after 7Gy TBI; type: in vivo, mouse; conditions: 50 mg/kg i.p. 2 h prior to 7Gy TBI
Protocol: Mice were divided into 4 groups containing 5 animals each. Group 1, sham control; Group 2, DMA treated (50 mg/kg, i.p.); Group 3, TBI 7Gy; Group 4, treated with DMA (50 mg/kg i.p.) prior to TBI 7Gy.

[2] = in vivo (earlier work, Nimesh et al., 2015); cited from earlier work
[3] = tested on: Balb/c mice and tumor bearing mice tissues; test: Tissue histopathology after 8 Gy TBI; type: in vivo, mouse
Protocol: The hepatic, spleen and small intestine specimens were collected from Balb/c mice and tumor bearing mice three days after 8 Gy TBI with or without pre-treatment with DMA (50 mg/kg) 2 hour before TBI. Tissue specimens were fixed in 10% buffered formalin, embedded in paraffin, sectioned and stained with H&E and examined using an upright trinocular microscope attached to a CCD camera.

Balb/c mice liver tissue = test: Biochemical estimations of antioxidant enzymes, thiols and lipid peroxidation in liver; type: in vivo, mouse; parameters: MDA level in hepatic tissues / Reduced glutathione (GSH) level in liver / GST level / GST content / SOD activity / SOD level / Total thiol contents in liver homogenates: unit not given here
Protocol: Mice hepatic tissues were homogenised using REMI homogenizer in phosphate buffer and centrifuged at 10,000×g for 15 min and aliquots of supernatant were separated. The supernatant was used for the biochemical estimations using standard spectrophotometric reported methods. The total protein was determined by the Lowry method.
The liver supernatant was incubated for 10 min and the absorbance was measured at 412 nm and total thiol content was calculated by standard method. The amount of MDA was done by reaction with thiobarbituric acid (TBA) at 532 nm by literature method.
Glutathione was measured according to the Ellman's method.
Superoxide dismutase (SOD) activity was assayed according to the Marklund and Marklund method. The activity of GST was determined by using CDNB as the substrate. The reaction mixture contained 1 mM of CDNB, 1 mM GSH in 0.1M phosphate buffer (pH 6.5). The formation of the GSH-CDNB conjugate was determined at 340 nm and the activity was calculated by using e=9.6 mM-1 cm-1.

[4] = tested on: Akt/NFκB pathway in melanoma tissue of mice; test: Immunoblot analysis in tumor tissue; type: in vivo, mouse
Protocol: EAT and B16F10 melanoma cell line were harvested and 10×10^6 and 0.8×10^6 cells respectively were injected subcutaneously in the Balb/c mice (n=24) on the right thigh. When tumors reached 0.5 cm^3 in volume, animals were randomized and divided into 4 different groups. The first test group was treated with 50 mg/kg, i.v. DMA, second test group subjected to 8 Gy TBI. Third group received 50 mg/kg, i.v. DMA and 8 Gy TBI both. The control group was similarly administered normal saline (0.1 ml, i.v.). On every alternate days, tumor-bearing thigh of each animal was shaved, and the longest (1) and shortest diameter (b) of the tumors along with height (h) were measured with the help of a vernier calliper. Tumor weight of each animal was calculated using the formula l*b*h/2.
HEK293, MRC5 and A549 cells were treated as indicated earlier. The cell pellet was resuspended in RIPA buffer and allowed to swell on ice for 30 min. Balb/c intestine tissue and tumor tissues were homogenized in RIPA buffer. Protein concentration was determined using Bradford's Assay (Bangalore Genei). […] Signals were detected using enhanced chemiluminescence (ECL system, Pierce) on X-ray film.

[5] = 50 mg/kg i.v. before 8Gy TBI, 3 days postirradiation
[6] = melanoma TBM, 50 mg/kg i.v., 8Gy TBI

SMILES: COc1ccc(-c2nc3cc(-c4nc5cc(N6CCN(C)CC6)ccc5[nH]4)ccc3[nH]2)cc1OC [DMA, 5-(4-methylpiperazin-1-yl)-2-[2′-(3,4-dimethoxyphenyl)-5′-benzimidazolyl]benzimidazole]
- % radioprotection by DMA (HEK293 cells; LY294002 and PS1145 simultaneously, 24 h): 3%
- % radioprotection by DMA (HEK293 cells; LY294002 and PS1145 simultaneously, 48 h): 2.2%
- % radioprotection by DMA (HEK293 cells; LY294002 and PS1145 simultaneously, 72 h): 2%
- % radioprotection by DMA (HEK293 cells; LY294002 treated cells, 24 h): 15%
- % radioprotection by DMA (HEK293 cells; LY294002 treated cells, 48 h): 10%
- % radioprotection by DMA (HEK293 cells; LY294002 treated cells, 72 h): 4%
- % radioprotection by DMA (HEK293 cells; PS1145 treated cells, 24 h): 4%
- % radioprotection by DMA (HEK293 cells; PS1145 treated cells, 48 h): 3.5%
- % radioprotection by DMA (HEK293 cells; PS1145 treated cells, 72 h): 2.4%
- % radioprotection by DMA (HEK293 cells; no inhibitor, 50 μM DMA, 5 Gy, 24 h): 40%
- % radioprotection by DMA (HEK293 cells; no inhibitor, 50 μM DMA, 5 Gy, 48 h): 35%
- % radioprotection by DMA (HEK293 cells; no inhibitor, 50 μM DMA, 5 Gy, 72 h): 16%
- DMF ([1]; NFκB Δp65− A549, 50 μM DMA 2 h): 1.02
- DMF ([1]; scrambled sequence transfected A549, 50 μM DMA 2 h): 1.28
- 30-days survival of nude mice (nude mice): 40%
- Maximum tolerated dose (MTD), no toxicity in vivo [2]: 2000 mg/kg
- Intestine histology [3, 5]: restored the crypts and villi architecture
- Liver histology [3, 5]: reduction in the number of pyknotic and inflammatory kupffer cells
- Spleen histology [3, 5]: restored the white pulp
- Intestine histology, tumor bearing mice [3, 6]: intact better heighted villi and crypts
- Lung alveolar structure, tumor bearing mice [3, 6]: less destructured
- Spleen histology, tumor bearing mice [3, 6]: structural retention through white and red pulp protection
- Glutathione reductase activity (Balb/c mice liver tissue; DMA 2 h prior to irradiation vs irradiated group): significant decrease
- SOD activity (Balb/c mice liver tissue; DMA only): 16.96±1.35
- GST level (Balb/c mice liver tissue; DMA only, 200 mg/kg oral): 2.76±0.32
- MDA level in hepatic tissues (Balb/c mice liver tissue; DMA only, 200 mg/kg oral): 0.19±0.06
- Reduced glutathione (GSH) level in liver (Balb/c mice liver tissue; DMA only, 200 mg/kg oral): 5.07±0.09
- Reduced glutathione (GSH) level in liver (Balb/c mice liver tissue; DMA pre-treatment + 8Gy TBI): 3.73±0.69
- MDA level in hepatic tissues (Balb/c mice liver tissue; DMA pre-treatment + 8Gy TBI, 24 h post-irradiation): 0.20±0.04
- Total thiol contents in liver homogenates (Balb/c mice liver tissue; DMA pre-treatment + TBI): 0.91±0.08
- SOD level (Balb/c mice liver tissue; DMA pre-treatment to radiation (8Gy)): 15.50±0.60
- GST content (Balb/c mice liver tissue; DMA prior to radiation): 2.78±0.25
- Phosphorylated Akt level ([4]; DMA pretreated to irradiation of TBM vs other conditions): lower
- Akt/NFκB signaling in response to radiation ([4]; tumor tissues of TBM, 50 mg/kg i.v. + 8Gy TBI): does not modulate
